ChEMBL document CHEMBL1124318, “Quinazoline antifolates inhibiting thymidylate synthase: synthesis of four oligo(L-gamma-glutamyl) conjugates of N10-propargyl-5,8-dideazafolic acid and their enzyme inhibition” (J Med Chem, 1989)

Target: T1, Thymidylate synthase (Homo sapiens, UniProt P04818)
Experiment: Compound was tested for inhibition of human (WI-L2) thymidylate synthase
Settings: read-out: Ki app
Target sequence in this assay (P04818 whole entry): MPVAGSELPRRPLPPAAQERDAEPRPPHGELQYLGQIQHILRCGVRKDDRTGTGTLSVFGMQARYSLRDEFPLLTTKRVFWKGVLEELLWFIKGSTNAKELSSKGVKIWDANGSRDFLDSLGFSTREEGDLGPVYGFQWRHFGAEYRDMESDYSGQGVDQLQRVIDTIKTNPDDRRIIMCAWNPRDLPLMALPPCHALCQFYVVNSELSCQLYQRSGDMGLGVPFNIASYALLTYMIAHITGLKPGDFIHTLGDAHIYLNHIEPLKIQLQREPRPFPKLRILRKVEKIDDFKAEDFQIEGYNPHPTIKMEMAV

Row | Ki | SMILES
1 | 0.224 nM | C#CCN(Cc1ccc2nc(N)[nH]c(=O)c2c1)c1ccc(C(=O)NC(CCC(=O)NC(CCC(=O)O)C(=O)O)C(=O)O)cc1 (stereo not drawn)
2 | 0.072 nM | C#CCN(Cc1ccc2nc(N)nc(O)c2c1)c1ccc(C(=O)NC(CCC(=O)NC(CCC(=O)NC(CCC(=O)O)C(=O)O)C(=O)O)C(=O)O)cc1 (stereo not drawn)
3 | 0.042 nM | C#CCN(Cc1ccc2nc(N)[nH]c(=O)c2c1)c1ccc(C(=O)NC(CCC(=O)NC(CCC(=O)NC(CCC(=O)NC(CCC(=O)NC(CCC(=O)O)C(=O)O)C(=O)O)C(=O)O)C(=O)O)C(=O)O)cc1 (stereo not drawn)

Row | SMILES | Ki
4 | C#CCN(Cc1ccc2nc(N)[nH]c(=O)c2c1)c1ccc(C(=O)NC(CCC(=O)NC(CCC(=O)NC(CCC(=O)NC(CCC(=O)O)C(=O)O)C(=O)O)C(=O)O)C(=O)O)cc1 (stereo not drawn) | 0.041 nM

Target: T1, Thymidylate synthase
Experiment: Fold increase of inhibition of human thymidylate synthase from that of control
Settings: not given
Target sequence in this assay (P04818 2-313 limits assumed): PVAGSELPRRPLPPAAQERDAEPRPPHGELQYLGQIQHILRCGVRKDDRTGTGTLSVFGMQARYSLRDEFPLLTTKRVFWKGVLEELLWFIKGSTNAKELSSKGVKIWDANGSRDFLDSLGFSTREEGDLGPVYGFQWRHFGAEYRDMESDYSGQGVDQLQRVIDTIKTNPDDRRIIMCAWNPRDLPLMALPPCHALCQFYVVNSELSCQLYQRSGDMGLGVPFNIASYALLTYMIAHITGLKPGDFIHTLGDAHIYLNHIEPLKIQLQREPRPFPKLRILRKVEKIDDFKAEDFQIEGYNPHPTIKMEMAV

Row | Fold increase | SMILES
5 | 31 | C#CCN(Cc1ccc2nc(N)nc(O)c2c1)c1ccc(C(=O)NC(CCC(=O)NC(CCC(=O)O)C(=O)O)C(=O)O)cc1 (stereo not drawn)
6 | 167 | C#CCN(Cc1ccc2nc(N)nc(O)c2c1)c1ccc(C(=O)NC(CCC(=O)NC(CCC(=O)NC(CCC(=O)NC(CCC(=O)NC(CCC(=O)O)C(=O)O)C(=O)O)C(=O)O)C(=O)O)C(=O)O)cc1 (stereo not drawn)
7 | 97 | C#CCN(Cc1ccc2nc(N)nc(O)c2c1)c1ccc(C(=O)NC(CCC(=O)NC(CCC(=O)NC(CCC(=O)O)C(=O)O)C(=O)O)C(=O)O)cc1 (stereo not drawn)

Row | SMILES | Fold increase
8 | C#CCN(Cc1ccc2nc(N)nc(O)c2c1)c1ccc(C(=O)NC(CCC(=O)NC(CCC(=O)NC(CCC(=O)NC(CCC(=O)O)C(=O)O)C(=O)O)C(=O)O)C(=O)O)cc1 (stereo not drawn) | 171
